Assay results from patent US20080199485A1 (priority 2007, published 2008).
Entries after “also recorded” stand apart in the source; their conditions may differ.

Experiments:
[1] = system: EL-4 cells pulsed with gp33 peptide; type: cell-based, mouse
[2] = system: TCR-transgenic gp33-specific T cells; type: cell-based, mouse

Sequence: KAVYNFATM [gp33]
- CTL response [1]: strongest CTL response; also recorded: weaker CTL responses
- IFN-γ production [2]: transiently produced at an early stage
- IFN-γ secretion [2]: higher amounts of IFN-gamma
- IL-10 production [2]: high amounts of IL-10 with an earlier onset
